# Measured values reported in patent US7560536B2, “Morning glory-derived anticancer agents, and novel ipomoeassin compounds” (Virginia Tech Intellectual Properties, Inc., priority 2005, dated 2009).
# Test system: A2780 human ovarian cancer cell line
# Assay: Cytotoxicity bioassay against the A2780 ovarian cancer cell line
# Assay type: cell-based
# Settings: A2780 human ovarian cancer cell line; read-out: IC50 against A2780
# Experimental: Cytotoxicity Bioassays. Cytotoxicity measurements were performed against the A2780 ovarian cancer cell line as previously described. The A2780 cell line is a drug-sensitive ovarian cancer cell line.
row,Compound,IC50 [nM]
1,"C/C=C(\C)C(=O)OC1C(O)C2OC(COC(=O)CCC(=O)[C@@H](OC(C)=O)CCCCC[C@H](CCC)OC3OC(C)C(OC(C)=O)C(O)C3O2)C1OC(=O)/C=C/c1ccccc1 (stereo partly drawn) [Compound 4, Tetradecanoic acid, 11-[[4-O-acetyl-6-deoxy-2-O-[3-O-[(2E)-2-methyl-1-oxo-2-butenyl]-4-O-[(2E)-1-oxo-3-phenyl-2-propenyl]-β-D-glucopyranosyl]-β-D-galactopyranosyl]oxy]-5-(acetyloxy)-4-oxo-, intramol. 1,6″-ester, (5S,11S)-]",35

# Same assay, conditions: Homo sapiens, A2780; read-out: IC50 (concentration that inhibited 50% of the growth of the A2780 human ovarian cell line)
row,Compound,IC50 [nM]
1,"C/C=C(\C)C(=O)OC1C(O)C2OC(COC(=O)CCC(=O)CCCCCC[C@H](CCC)OC3OC(C)C(OC(C)=O)C(O)C3O2)C1OC(=O)/C=C/c1ccccc1 (stereo partly drawn) [Compound 1, Tetradecanoic acid, 11-[[4-O-acetyl-6-deoxy-2-O-[3-O-[(2E)-2-methyl-1-oxo-2-butenyl]-4-O-[(2E)-1-oxo-3-phenyl-2-propenyl]-β-D-glucopyranosyl]-β-D-galactopyranosyl]oxy]-4-oxo-, intramol. 1,6″-ester, (11S)-]",500
2,"C/C=C(\C)C(=O)OC1C(O)C2OC(COC(=O)CCC(=O)CCCCCC[C@H](CCC)OC3OC(C)C(O)C(O)C3O2)C1OC(=O)/C=C/c1ccccc1 (stereo partly drawn) [Compound 2, Tetradecanoic acid, 11-[[6-deoxy-2-O-[3-O-[(2E)-2-methyl-1-oxo-2-butenyl]-4-O-[(2E)-1-oxo-3-phenyl-2-propenyl]-β-D-glucopyranosyl]-β-D-galactopyranosyl]oxy]-4-oxo-, intramol. 1,6″-ester, (11S)-]",400
3,"C/C=C(\C)C(=O)OC1C(O)C2OC(COC(=O)CCC(=O)[C@@H](O)CCCCC[C@H](CCC)OC3OC(C)C(OC(C)=O)C(O)C3O2)C1OC(=O)/C=C/c1ccccc1 (stereo partly drawn) [Compound 3, Tetradecanoic acid, 11-[[4-O-acetyl-6-deoxy-2-O-[3-O-[(2E)-2-methyl-1-oxo-2-butenyl]-4-O-[(2E)-1-oxo-3-phenyl-2-propenyl]-β-D-glucopyranosyl]-β-D-galactopyranosyl]oxy]-5-hydroxy-4-oxo-, intramol. 1,6″-ester, (5S,11S)-]",2900
4,"C/C=C(\C)C(=O)OC1C(O)C2OC(COC(=O)CCC(=O)[C@@H](OC(C)=O)CCCCC[C@H](CCC)OC3OC(C)C(OC(C)=O)C(O)C3O2)C1OC(=O)/C=C/c1ccccc1 (stereo partly drawn) [Compound 4, Tetradecanoic acid, 11-[[4-O-acetyl-6-deoxy-2-O-[3-O-[(2E)-2-methyl-1-oxo-2-butenyl]-4-O-[(2E)-1-oxo-3-phenyl-2-propenyl]-β-D-glucopyranosyl]-β-D-galactopyranosyl]oxy]-5-(acetyloxy)-4-oxo-, intramol. 1,6″-ester, (5S,11S)-]",35
5,"C/C=C(\C)C(=O)OC1C(O)C2OC(COC(=O)CCC(=O)[C@@H](OC(C)=O)CCCCC[C@H](CCC)OC3OC(C)C(O)C(O)C3O2)C1OC(=O)/C=C/c1ccccc1 (stereo partly drawn) [Compound 5, Tetradecanoic acid, 5-(acetyloxy)-11-[[6-deoxy-2-O-[3-O-[(2E)-2-methyl-1-oxo-2-butenyl]-4-O-[(2E)-1-oxo-3-phenyl-2-propenyl]-β-D-glucopyranosyl]-β-D-galactopyranosyl]oxy]-4-oxo-, intramol. 1,6″-ester, (5S,11S)-]",3300
6,"C/C=C(\C)C(=O)OC1C(OC(=O)/C=C/c2ccccc2)C2COC(=O)CCC(=O)CCCCCC[C@H](CCC)OC3OC(C)C(OC(C)=O)C(OC(C)=O)C3OC(O2)C1OC(C)=O (stereo partly drawn) [Compound 6, 3′,2″-O-Diacetyl ipomoeassin A]",15800
7,"C/C=C(\C)C(=O)OC1C(OC(=O)/C=C/c2ccccc2)C2COC(=O)CCC(=O)[C@@H](OC(C)=O)CCCCC[C@H](CCC)OC3OC(C)C(OC(C)=O)C(OC(C)=O)C3OC(O2)C1OC(C)=O (stereo partly drawn) [Compound 7, 5,3′,2″-O-Triacetyl ipomoeassin C]",19100
8,"C/C=C(\C)C(=O)OC1C(O)C2OC(COC(=O)CCC(=O)CCCCCCC(CCCCC)OC3OC(C)C(OC(C)=O)C(O)C3O2)C1OC(=O)/C=C/c1ccccc1 [Compound 14, Hexadecanoic acid, 11-[[4-O-acetyl-6-deoxy-2-O-[3-O-[(2E)-2-methyl-1-oxo-2-butenyl]-4-O-[(2E)-1-oxo-3-phenyl-2-propenyl]-β-D-glucopyranosyl]-β-D-galactopyranosyl]oxy]-4-oxo-, intramol. 1,6″-ester, (11S)-]",36
